Laboratory results from PMC7986984 (Brain, behavior, and immunity, 2020).
Where two headings read alike, the source gives them in different places. Marks after values point to notes of the source that are not given here.

Legend:
[1] = assay type: in vivo, mice; conditions: for AUC: over 24 h; for Cmax: mice, bolus by oral gavage, 0.25-24 h, n = 6 +/- SEM
[2] = assay type: in vivo, mice; conditions: for AUC: over 24 h; for Cmax: n = 6 +/- SEM
[3] = male, mouse, plasma, po, AUC, Chronic BDPP
[4] = male, mouse, plasma, po, AUC, Chronic Synbiotic
[5] = male, mouse, plasma, po, Tmax, Chronic BDPP
[6] = male, mouse, plasma, po, Tmax, Chronic Synbiotic
[7] = male, mouse, brain, po, AUC, Chronic BDPP
[8] = male, mouse, brain, po, AUC, Chronic Synbiotic
[9] = male, mouse, brain, po, Cmax, Chronic BDPP
[10] = male, mouse, brain, po, Cmax, Chronic Synbiotic
[11] = male, mouse, brain, po, Tmax, Chronic BDPP
[12] = male, mouse, brain, po, Tmax, Chronic Synbiotic

| SMILES | AUC [1, 3] | AUC [1, 4] | Tmax [1, 5] | Tmax [1, 6] | AUC [2, 7] | AUC [2, 8] | Cmax [2, 9] | Cmax [2, 10] | Tmax [2, 11] | Tmax [2, 12] | further results |
| --- | --- | --- | --- | --- | --- | --- | --- | --- | --- | --- | --- |
| O=C(O)c1ccc(O)c(O)c1 [3,4-diHBA, 3,4-Dihydroxybenzoic acid] | 0.138 µg·h/mL | 0.0334 µg·h/mL | 18 min | 18 min | 0.0881 µg·h/mL | 0.291 µg·h/mL | 15.2 ± 3.1 ng/mL | 14.4 ± 3.8 ng/mL | 18 min | 30 min | – |
| O=C(O)Cc1ccc(O)c(O)c1 [3,4-diHPAA, 3,4-Dihydroxyphenylacetic acid] | 0.74 µg·h/mL | 0.344 µg·h/mL | 30 min | 30 min | 2.2 µg·h/mL | 2.12 µg·h/mL | 100 ± 7 ng/mL | 126 ± 24 ng/mL | 60 min | 120 min | – |
| O=C(O)c1cccc(O)c1 [3-HBA, 3-Hydroxybenzoic acid] | 0.366 µg·h/mL | 0.214 µg·h/mL | 60 min | 60 min | 0.0673 µg·h/mL | 0.146 µg·h/mL | 5.4 ± 0.4 ng/mL | 8.9 ± 1.8 ng/mL | 30 min | 240 min | – |
| O=C(O)Cc1cccc(O)c1 [3-HPAA, 3-Hydroxyphenylacetic acid] | 0.606 µg·h/mL | 1.08 µg·h/mL | 60 min | 18 min | 0.029 µg·h/mL | 0.0412 µg·h/mL | 2.7 ± 0.3 ng/mL | 3.2 ± 0.5 ng/mL | 30 min | 30 min | – |
| O=C(O)CCc1cccc(O)c1 [3-HPPA, 3-(3-Hydroxyphenyl)propionic acid] | 0.0047 µg·h/mL | 0.06 µg·h/mL | 60 min | 120 min | – | – | – | – | – | – | – |
| O=C(O)c1ccc(O)cc1 [4-HBA, 4-Hydroxybenzoic acid] | 0.866 µg·h/mL | 1.28 µg·h/mL | – | 1440 min | 1.7 µg·h/mL | 6.68 µg·h/mL | 108 ± 19.3 ng/mL | 448 ± 15 ng/mL | 0 min | 480 min | – |
| O=C(O)C=Cc1ccc(O)cc1 [4-HCA, 4-Hydroxycinnamic acid] | 0.455 µg·h/mL | 1.67 µg·h/mL | 18 min | 18 min | – | – | – | – | – | – | – |
| O=C(O)CNC(=O)c1ccc(O)cc1 [4-HHA, 4-Hydroxyhippuric acid] | 0.0017 µg·h/mL | 0.0059 µg·h/mL | 18 min | 120 min | – | – | – | – | – | – | – |
| COc1c(O)cc(C(=O)O)cc1O [4-MeGA, 4-O-Methylgallic acid] | 0.336 µg·h/mL | 0.163 µg·h/mL | 30 min | 30 min | 0.0033 µg·h/mL | 0.0068 µg·h/mL | 2.2 ± 0.4 ng/mL | 5 ± 1 ng/mL | 30 min | 18 min | – |
| Oc1cc(O)c2c(c1)OC(c1ccc(O)c(O)c1)C(O)C2 (stereo not shown) [C, Catechin] | – | – | – | – | – | – | – | – | – | – | Tmax ([1]; Plasma, Chronic BDPP): 30 min; Cmax ([1]; Plasma, Chronic BDPP): 55.5 ± 7.8 ng/mL; AUC ([1]; Plasma, Chronic BDPP): 80.6** ng/mL*h; Tmax ([1]; Plasma, Chronic Synbiotic): 60 min; Cmax ([1]; Plasma, Chronic Synbiotic): 0.0098 ± 0.0007 ng/mL; AUC ([1]; Plasma, Chronic Synbiotic): 0.0252 µg·h/mL |
| COc1cc(CCC(=O)O)ccc1O [DHFA, Dihyroferulic acid] | – | – | – | – | – | – | – | – | – | – | Tmax ([1]; Plasma, Chronic BDPP): 18 min; Cmax ([1]; Plasma, Chronic BDPP): 2.5 ± 0.7 ng/mL; AUC ([1]; Plasma, Chronic BDPP): 0.0307 µg·h/mL; Tmax ([1]; Plasma, Chronic Synbiotic): 18 min; Cmax ([1]; Plasma, Chronic Synbiotic): 0.0077 ± 0.0011 ng/mL; AUC ([1]; Plasma, Chronic Synbiotic): 0.0302 µg·h/mL |
| Oc1ccc(CCc2cc(O)cc(O)c2)cc1 [DHRSV, Dihydroresveratrol] | 1.05 µg·h/mL | 7.8 µg·h/mL | 60 min | 480 min | – | – | – | – | – | – | – |
| O=C1CCC(Cc2ccc(O)c(O)c2)O1 (stereo not shown) [DHVL, 5-(3′,4′-Dihydroxyphenyl)-γ-valerolactone] | 0.123 µg·h/mL | 0.224 µg·h/mL | 30 min | 60 min | – | – | – | – | – | – | – |
| Oc1cc(O)c2c(c1)O[C@H](c1ccc(O)c(O)c1)[C@H](O)C2 [EC, Epicatechin] | 0.189 µg·h/mL | 0.413 µg·h/mL | 18 min | 18 min | – | – | – | – | – | – | – |
| COc1cc(/C=C/C(=O)O)ccc1O [FA, Ferulic acid] | – | – | – | – | – | – | – | – | – | – | Tmax ([1]; Plasma, Chronic BDPP): 30 min; Cmax ([1]; Plasma, Chronic BDPP): 28.9 ± 9.7 ng/mL; AUC ([1]; Plasma, Chronic BDPP): 320.9** ng/mL*h; Tmax ([1]; Plasma, Chronic Synbiotic): 30 min; Cmax ([1]; Plasma, Chronic Synbiotic): 0.0226 ± 0.0062 ng/mL; AUC ([1]; Plasma, Chronic Synbiotic): 0.1388 µg·h/mL; Tmax ([2]; Brain, Chronic BDPP): 30 min; Cmax ([2]; Brain, Chronic BDPP): 1.5 ± 0.3 ng/mL; AUC ([2]; Brain, Chronic BDPP): 0.0188 µg·h/mL; Tmax ([2]; Brain, Chronic Synbiotic): 120 min; Cmax ([2]; Brain, Chronic Synbiotic): 0.0023 ± 0.0006 ng/mL; AUC ([2]; Brain, Chronic Synbiotic): 0.02 µg·h/mL |
| O=C(O)c1cc(O)c(O)c(O)c1 [GA, Gallic acid] | 1.27 µg·h/mL | 2.39 µg·h/mL | 18 min | – | 7.56 µg·h/mL | 4.76 µg·h/mL | 1340 ± 611 ng/mL | 336 ± 112 ng/mL | 18 min | 120 min | – |
| O=C(O)CNC(=O)c1ccccc1 [HA, Hippuric acid] | 0.889 µg·h/mL | 1.32 µg·h/mL | 60 min | 240 min | 0.518 µg·h/mL | 1.81 µg·h/mL | 22.4 ± 11.6 ng/mL | 111 ± 7.2 ng/mL | 60 min | 480 min | – |
| COc1cc(CC(=O)O)ccc1O [HVA, Homovanillic acid] | 0.205 µg·h/mL | 1.47 µg·h/mL | 60 min | 30 min | 5.92 µg·h/mL | 6.22 µg·h/mL | 296 ± 10 ng/mL | 301 ± 14 ng/mL | 60 min | 60 min | – |
| O=c1c(O)c(-c2cc(O)c(O)c(O)c2)oc2cc(O)cc(O)c12 [MYR, Myricetin] | 0.0853 µg·h/mL | 0.305 µg·h/mL | 30 min | 18 min | 0.0978 µg·h/mL | 0.578 µg·h/mL | 86.5 ± 38 ng/mL | 118 ± 18 ng/mL | 18 min | 60 min | – |
| O=C(O)Cc1ccccc1 [PA, Phenylacetic acid] | 8630 µg·h/mL | 8800 µg·h/mL | 30 min | 240 min | 6970 µg·h/mL | 14500 µg·h/mL | 447000 ± 37200 ng/mL | 760000 ± 140000 ng/mL | 30 min | 480 min | – |
| Oc1cc(O)c2c(c1)O[C@H](c1ccc(O)c(O)c1)[C@H](O)[C@H]2c1c(O)cc(O)c2c1O[C@H](c1ccc(O)c(O)c1)[C@H](O)C2 [PAC-B2, Proanthocyanidin dimer B2] | – | – | – | – | – | – | – | – | – | – | Tmax ([1]; Plasma, Chronic BDPP): 30 min; Cmax ([1]; Plasma, Chronic BDPP): 2.0 ± 0.7 ng/mL; AUC ([1]; Plasma, Chronic BDPP): 0.0015 µg·h/mL; Tmax ([1]; Plasma, Chronic Synbiotic): 30 min; Cmax ([1]; Plasma, Chronic Synbiotic): 0.0027 ± 0.0008 ng/mL; AUC ([1]; Plasma, Chronic Synbiotic): 3.5* ng/mL*h |
| O=c1c(O)c(-c2ccc(O)c(O)c2)oc2cc(O)cc(O)c12 [QUER, Quercetin] | 0.0461 µg·h/mL | 0.583 µg·h/mL | 18 min | 18 min | 0.142 µg·h/mL | 0.544 µg·h/mL | 89.5 ± 48.3 ng/mL | 98.6 ± 24.7 ng/mL | 18 min | 120 min | – |
| Oc1ccc(/C=C/c2cc(O)cc(O)c2)cc1 [RSV, t-Resveratrol (−)] | – | – | – | – | – | – | – | – | – | – | Tmax ([1]; Plasma, Chronic BDPP): 30 min; Cmax ([1]; Plasma, Chronic BDPP): 11628.0 ± 1788.0 ng/mL; AUC ([1]; Plasma, Chronic BDPP): 51313.0* ng/mL*h; Tmax ([1]; Plasma, Chronic Synbiotic): 30 min; Cmax ([1]; Plasma, Chronic Synbiotic): 15.785 ± 4.246 ng/mL; AUC ([1]; Plasma, Chronic Synbiotic): 33.1507 µg·h/mL; Tmax ([2]; Brain, Chronic BDPP): 18 min; Cmax ([2]; Brain, Chronic BDPP): 9.5 ± 2.5 ng/mL; AUC ([2]; Brain, Chronic BDPP): 122.3** ng/mL*h; Tmax ([2]; Brain, Chronic Synbiotic): 120 min; Cmax ([2]; Brain, Chronic Synbiotic): 0.0038 ± 0.0002 ng/mL; AUC ([2]; Brain, Chronic Synbiotic): 0.0331 µg·h/mL |
